Source: publication PMC10174618, “Monoterpenoid aryl hydrocarbon receptor allosteric antagonists protect against ultraviolet skin damage in female mice” (Nature Communications, 2023)

Key:
Assay in all cases: biochemical
Design in all cases: KINOMEscan scanMAX active site-directed competition binding assay, percent of control, 468 kinases
Details in all cases: competition binding, percent of control
KIT(A829P) = KIT(A829P) (Homo sapiens, UniProt P10721, A829P)
How it was run: (§1)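 KINOMEscan active site-directed competition binding assay against 468 human kinases with 100 μM S-carvone. Binding expressed as % of control, with 35% of control as the inhibition threshold.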

MLCK = molecular target: T1, MLCK (Homo sapiens, UniProt Q32MK0)
T1 construct: gene MYLK3
How it was run: as §1

STK39 = STK39 (Homo sapiens, UniProt Q9UEW8)
How it was run: as §1

ITK = ITK (Homo sapiens, UniProt Q08881)
How it was run: as §1

DLK = molecular target: T2, DLK (Homo sapiens, UniProt Q12852)
T2 construct: gene MAP3K12
T2 sequence (Q12852 whole entry): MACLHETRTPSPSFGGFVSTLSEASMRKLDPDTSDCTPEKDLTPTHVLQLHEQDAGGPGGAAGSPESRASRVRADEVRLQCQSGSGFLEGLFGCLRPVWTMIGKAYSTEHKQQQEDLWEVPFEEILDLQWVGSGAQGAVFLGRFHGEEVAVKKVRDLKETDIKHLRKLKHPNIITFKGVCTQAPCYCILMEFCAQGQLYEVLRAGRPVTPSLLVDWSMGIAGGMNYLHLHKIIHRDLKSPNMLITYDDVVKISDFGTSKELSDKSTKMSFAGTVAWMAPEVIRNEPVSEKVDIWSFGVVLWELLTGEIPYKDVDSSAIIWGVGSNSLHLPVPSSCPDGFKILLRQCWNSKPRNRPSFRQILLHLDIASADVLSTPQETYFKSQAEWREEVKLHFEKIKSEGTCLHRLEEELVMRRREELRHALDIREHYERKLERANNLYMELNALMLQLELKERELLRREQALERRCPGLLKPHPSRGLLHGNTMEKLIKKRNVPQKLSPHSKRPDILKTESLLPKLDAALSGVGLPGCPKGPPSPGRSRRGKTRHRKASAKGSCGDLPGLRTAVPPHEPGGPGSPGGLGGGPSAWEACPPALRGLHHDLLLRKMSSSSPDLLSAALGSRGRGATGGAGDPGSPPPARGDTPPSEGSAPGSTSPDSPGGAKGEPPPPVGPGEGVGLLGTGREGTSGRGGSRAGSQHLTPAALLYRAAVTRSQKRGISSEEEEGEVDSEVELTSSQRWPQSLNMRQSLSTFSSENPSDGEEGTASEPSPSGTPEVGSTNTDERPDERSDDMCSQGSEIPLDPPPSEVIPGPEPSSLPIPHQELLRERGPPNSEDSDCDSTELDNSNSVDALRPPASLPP
How it was run: as §1

WNK3 = WNK3 (Homo sapiens, UniProt Q9BYP7)
How it was run: as §1

NEK3 = NEK3 (Homo sapiens, UniProt P51956)
How it was run: as §1

LATS2 = LATS2 (Homo sapiens, UniProt Q9NRM7)
LATS2, sequence (Q9NRM7 whole entry): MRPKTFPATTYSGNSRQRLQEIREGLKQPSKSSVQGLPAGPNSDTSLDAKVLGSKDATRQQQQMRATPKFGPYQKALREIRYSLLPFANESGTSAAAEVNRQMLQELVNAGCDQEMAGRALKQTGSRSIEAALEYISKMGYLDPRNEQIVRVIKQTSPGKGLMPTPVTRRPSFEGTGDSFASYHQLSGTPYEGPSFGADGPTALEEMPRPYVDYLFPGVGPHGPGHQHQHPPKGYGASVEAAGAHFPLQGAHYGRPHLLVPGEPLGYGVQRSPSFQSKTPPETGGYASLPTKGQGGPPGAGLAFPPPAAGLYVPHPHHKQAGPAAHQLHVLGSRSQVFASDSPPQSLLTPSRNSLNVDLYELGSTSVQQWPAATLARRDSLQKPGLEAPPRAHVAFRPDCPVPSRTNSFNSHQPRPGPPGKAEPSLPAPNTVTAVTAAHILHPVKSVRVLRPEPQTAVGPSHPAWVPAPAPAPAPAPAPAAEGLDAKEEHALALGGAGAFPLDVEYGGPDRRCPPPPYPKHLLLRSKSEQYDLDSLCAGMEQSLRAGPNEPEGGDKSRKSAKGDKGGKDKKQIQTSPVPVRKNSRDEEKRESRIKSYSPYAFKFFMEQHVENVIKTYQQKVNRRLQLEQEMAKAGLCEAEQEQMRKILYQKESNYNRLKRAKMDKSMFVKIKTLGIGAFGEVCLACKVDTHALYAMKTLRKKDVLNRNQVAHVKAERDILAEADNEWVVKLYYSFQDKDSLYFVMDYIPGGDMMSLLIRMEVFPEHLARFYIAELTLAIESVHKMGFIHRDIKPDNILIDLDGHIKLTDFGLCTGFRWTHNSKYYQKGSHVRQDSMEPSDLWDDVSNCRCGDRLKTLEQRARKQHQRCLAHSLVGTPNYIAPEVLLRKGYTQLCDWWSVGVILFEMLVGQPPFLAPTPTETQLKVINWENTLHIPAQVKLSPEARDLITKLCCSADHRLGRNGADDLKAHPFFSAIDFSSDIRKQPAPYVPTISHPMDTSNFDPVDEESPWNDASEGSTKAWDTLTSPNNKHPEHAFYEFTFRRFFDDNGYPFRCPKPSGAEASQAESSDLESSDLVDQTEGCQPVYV
How it was run: as §1

PKN1 = PKN1 (Homo sapiens, UniProt Q16512)
PKN1, sequence (Q16512 whole entry): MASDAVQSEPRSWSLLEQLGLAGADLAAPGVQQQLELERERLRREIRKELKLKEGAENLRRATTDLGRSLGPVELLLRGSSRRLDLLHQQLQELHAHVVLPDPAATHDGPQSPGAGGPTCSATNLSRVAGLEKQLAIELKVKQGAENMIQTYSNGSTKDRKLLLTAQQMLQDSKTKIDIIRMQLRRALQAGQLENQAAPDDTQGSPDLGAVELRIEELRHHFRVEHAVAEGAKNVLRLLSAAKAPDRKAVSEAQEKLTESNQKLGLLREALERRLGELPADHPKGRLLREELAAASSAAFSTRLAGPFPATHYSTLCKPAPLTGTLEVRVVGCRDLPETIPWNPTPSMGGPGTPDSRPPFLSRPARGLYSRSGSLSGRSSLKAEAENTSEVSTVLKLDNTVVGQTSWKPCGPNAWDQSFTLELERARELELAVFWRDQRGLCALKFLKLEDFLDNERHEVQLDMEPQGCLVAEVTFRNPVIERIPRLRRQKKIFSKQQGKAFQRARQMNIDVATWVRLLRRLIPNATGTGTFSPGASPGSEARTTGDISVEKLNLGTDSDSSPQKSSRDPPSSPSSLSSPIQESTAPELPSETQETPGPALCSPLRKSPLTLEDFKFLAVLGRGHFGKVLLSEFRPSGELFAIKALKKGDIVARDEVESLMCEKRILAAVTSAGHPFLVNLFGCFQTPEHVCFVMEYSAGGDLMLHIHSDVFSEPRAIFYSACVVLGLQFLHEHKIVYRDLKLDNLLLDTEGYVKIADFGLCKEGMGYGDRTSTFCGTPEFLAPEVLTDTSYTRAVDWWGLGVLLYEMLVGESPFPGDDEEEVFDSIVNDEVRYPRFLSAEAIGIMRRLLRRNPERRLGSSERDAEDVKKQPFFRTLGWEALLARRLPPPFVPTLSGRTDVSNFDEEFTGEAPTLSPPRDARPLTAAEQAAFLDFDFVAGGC
How it was run: as §1

DAPK1 = DAPK1 (Homo sapiens, UniProt P53355)
How it was run: as §1

TGFBR1 = TGFBR1 (Homo sapiens, UniProt P36897)
How it was run: as §1

NEK5 = NEK5 (Homo sapiens, UniProt Q6P3R8)
NEK5, sequence (Q6P3R8 whole entry): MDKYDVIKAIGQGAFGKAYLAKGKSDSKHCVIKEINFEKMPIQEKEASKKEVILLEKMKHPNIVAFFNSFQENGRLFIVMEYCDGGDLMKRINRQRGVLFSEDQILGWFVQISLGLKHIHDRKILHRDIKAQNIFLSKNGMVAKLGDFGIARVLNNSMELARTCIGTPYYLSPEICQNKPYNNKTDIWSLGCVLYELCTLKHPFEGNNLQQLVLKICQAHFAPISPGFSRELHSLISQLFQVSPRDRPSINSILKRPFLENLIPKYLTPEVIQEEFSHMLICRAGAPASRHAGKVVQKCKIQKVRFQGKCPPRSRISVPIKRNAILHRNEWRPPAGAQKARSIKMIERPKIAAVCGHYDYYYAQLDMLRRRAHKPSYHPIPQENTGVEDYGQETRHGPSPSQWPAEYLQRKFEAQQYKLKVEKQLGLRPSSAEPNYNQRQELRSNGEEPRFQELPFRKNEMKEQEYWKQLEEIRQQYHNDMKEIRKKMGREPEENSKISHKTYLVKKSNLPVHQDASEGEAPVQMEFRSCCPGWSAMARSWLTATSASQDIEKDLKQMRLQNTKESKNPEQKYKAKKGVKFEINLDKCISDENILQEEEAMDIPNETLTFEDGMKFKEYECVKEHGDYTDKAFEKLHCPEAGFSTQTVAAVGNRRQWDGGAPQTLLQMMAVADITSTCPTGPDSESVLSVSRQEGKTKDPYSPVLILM
How it was run: as §1

CDK8 = CDK8 (Homo sapiens, UniProt P49336)
How it was run: as §1

MARK3 = MARK3 (Homo sapiens, UniProt P27448)
How it was run: as §1

PAK1 = PAK1 (Homo sapiens, UniProt Q13153)
How it was run: as §1

ASK2 = molecular target: T3, ASK2 (Homo sapiens, UniProt O95382)
T3 construct: gene MAP3K6
How it was run: as §1

NEK11 = NEK11 (Homo sapiens, UniProt Q8NG66)
NEK11, sequence (Q8NG66 whole entry): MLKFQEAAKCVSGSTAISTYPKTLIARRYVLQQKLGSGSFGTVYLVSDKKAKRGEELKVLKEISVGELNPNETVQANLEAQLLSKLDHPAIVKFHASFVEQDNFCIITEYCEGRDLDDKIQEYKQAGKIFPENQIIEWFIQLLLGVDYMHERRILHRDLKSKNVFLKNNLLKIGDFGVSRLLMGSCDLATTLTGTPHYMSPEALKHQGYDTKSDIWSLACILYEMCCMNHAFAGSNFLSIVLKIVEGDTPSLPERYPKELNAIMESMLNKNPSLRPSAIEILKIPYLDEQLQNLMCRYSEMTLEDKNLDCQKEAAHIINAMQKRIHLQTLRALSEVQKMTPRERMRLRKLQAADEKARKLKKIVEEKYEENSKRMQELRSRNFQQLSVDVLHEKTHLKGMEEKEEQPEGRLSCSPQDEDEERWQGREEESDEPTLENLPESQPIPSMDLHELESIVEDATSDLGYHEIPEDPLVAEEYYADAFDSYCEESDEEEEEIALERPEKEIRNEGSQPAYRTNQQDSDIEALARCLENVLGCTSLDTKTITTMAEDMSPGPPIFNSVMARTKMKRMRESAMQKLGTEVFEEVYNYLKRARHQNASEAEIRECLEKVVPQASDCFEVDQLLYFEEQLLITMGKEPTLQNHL
How it was run: as §1

EGFR(G719C) = EGFR(G719C) (Homo sapiens, UniProt P00533, G719C)
How it was run: as §1

PAK7 = molecular target: T4, PAK7 (Homo sapiens, UniProt Q9P286)
T4 construct: gene PAK5
T4 sequence (Q9P286 whole entry): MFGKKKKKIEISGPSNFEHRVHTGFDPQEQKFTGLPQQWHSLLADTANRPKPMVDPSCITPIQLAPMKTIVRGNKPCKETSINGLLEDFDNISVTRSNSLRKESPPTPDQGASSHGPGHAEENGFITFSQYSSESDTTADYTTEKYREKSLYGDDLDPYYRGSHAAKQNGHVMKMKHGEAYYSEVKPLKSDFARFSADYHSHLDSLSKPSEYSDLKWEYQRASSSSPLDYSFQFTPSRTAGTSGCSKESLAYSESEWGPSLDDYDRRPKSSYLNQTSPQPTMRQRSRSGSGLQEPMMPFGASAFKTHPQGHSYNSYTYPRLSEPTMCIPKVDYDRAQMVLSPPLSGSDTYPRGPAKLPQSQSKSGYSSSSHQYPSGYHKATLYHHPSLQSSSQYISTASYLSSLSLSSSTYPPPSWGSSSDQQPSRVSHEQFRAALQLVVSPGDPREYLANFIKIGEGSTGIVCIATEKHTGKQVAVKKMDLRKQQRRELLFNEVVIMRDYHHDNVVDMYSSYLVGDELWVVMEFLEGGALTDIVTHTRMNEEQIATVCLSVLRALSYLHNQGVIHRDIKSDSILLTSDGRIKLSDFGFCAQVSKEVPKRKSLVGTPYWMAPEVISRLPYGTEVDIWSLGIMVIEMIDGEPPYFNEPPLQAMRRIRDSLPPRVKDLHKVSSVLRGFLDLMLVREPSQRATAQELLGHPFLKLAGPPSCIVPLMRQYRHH
How it was run: as §1

MARK1 = MARK1 (Homo sapiens, UniProt Q9P0L2)
How it was run: as §1

AAK1 = AAK1 (Homo sapiens, UniProt Q2M2I8)
How it was run: as §1

p38-delta = molecular target: T5, p38-delta (Homo sapiens, UniProt O15264)
T5 construct: gene MAPK13
How it was run: as §1

Structure (SMILES): C=C(C)[C@H]1CC=C(C)C(=O)C1 [S-carvone]
- remaining binding at 100 µM (KIT(A829P)): 84%
- remaining binding at 100 µM (MLCK): 98%
- remaining binding at 100 µM (STK39): 80%
- remaining binding at 100 µM (ITK): 87%
- remaining binding at 100 µM (DLK): 88%
- remaining binding at 100 µM (WNK3): 100%
- remaining binding at 100 µM (NEK3): 49%
- remaining binding at 100 µM (LATS2): 45%
- remaining binding at 100 µM (PKN1): 93%
- remaining binding at 100 µM (DAPK1): 65%
- remaining binding at 100 µM (TGFBR1): 100%
- remaining binding at 100 µM (NEK5): 93%
- remaining binding at 100 µM (CDK8): 84%
- remaining binding at 100 µM (MARK3): 68%
- remaining binding at 100 µM (PAK1): 66%
- remaining binding at 100 µM (ASK2): 100%
- remaining binding at 100 µM (NEK11): 52%
- remaining binding at 100 µM (EGFR(G719C)): 74%
- remaining binding at 100 µM (PAK7): 100%
- remaining binding at 100 µM (MARK1): 85%
- remaining binding at 100 µM (AAK1): 77%
- remaining binding at 100 µM (p38-delta): 57%
